# Strand notation (5' to 3'): a small letter for the sugar, then the base; units joined by * are phosphorothioate-linked, units joined directly phosphodiester-linked; [ ] holds rarer units or linkages, { } end groups; capitals alone tell only the bases. e = 2'-O-(2-methoxyethyl) (MOE); [5mC] = 5-methylcytosine; d = 2'-deoxy (DNA)
# Key:
# Type in all cases: cell-based
# RANKL mRNA [1] = assay: Antisense inhibition of RANKL mRNA expression followed by PTH treatment in primary mouse osteoblast cells: dose response (Table 8); conditions: 10 nM PTH last 2 h, relative to PTH alone
# Method: Primary mouse osteoblasts were prepared from calvaria of neonatal mice purchased from Charles River Laboratories. […] Cells were not passaged. Cells were seeded onto 6-well plates (Falcon-Primaria #353846) at a density of 50,000 cells/well for use in antisense oligonucleotide transfection.
# In a further embodiment of this invention, the effect of RANKL antisense oligonucleotides and PTH treatment on the expression of RANKL was determined in primary osteoblast cells isolated from mice skull caps.
# ISIS 143624 ([…], SEQ ID NO: 348) was used as a control oligonucleotide. […] All cytidine residues are 5-methylcytidines.
# Primary osteoblastic cells were transfected for 24 hours with either Isis 180819 (SEQ ID NO: 185) or the control oligo ISIS 143624 (SEQ ID NO: 348) at a dose of […], 125 nM, 250 nM, or 500 nM by the methods described herein but using the transfection reagent FuGENE 6 (Roche Applied Science, Indianapolis, Ind.). During the last 2 hours of oligonucleotide transfection, the cells were treated with 10 nM PTH. The RNA was then harvested and the expression levels of […] were measured by the methods described herein. The results are expressed as percent inhibition relative to PTH treatment alone and represent the average from three experiments.
# mouse RANKL mRNA [2] = assay: Antisense inhibition of mouse RANKL mRNA levels in C2C12 cells, quantitative real-time PCR (Table 2); set-up: concentration or dose not given beside the values; conditions: averages from three experiments
# Summary of the method: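 C2C12 cells seeded at ~10,000 cells/cm^2, treated with antisense oligonucleotides (all C as 5-methylcytidine) in triplicate and harvested 16-24 h later. Mouse RANKL mRNA quantified by real-time RT-PCR with a FAM/TAMRA probe, with mouse GAPDH (JOE/TAMRA probe) as reference.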
# RANKL mRNA [3] = assay: Antisense inhibition of RANKL mRNA expression followed by PTH treatment in primary mouse osteoblast cells: dose response (Table 8); conditions: 63 nM oligonucleotide 24 h, 10 nM PTH last 2 h, relative to PTH alone
# mouse RANKL mRNA [4] = assay: Antisense inhibition of mouse RANKL mRNA in C2C12 cells: dose response (Table 5); conditions: relative to untreated control
# Method: Cells were seeded into 24-well plates (Falcon-353047 at a density of ˜10,000 cells/cm^2 for use in antisense oligonucleotide transfection.
# Cells are treated and data are obtained in triplicate. […] Cells were harvested 16-24 hours after oligonucleotide treatment.
# Probes and primers to mouse RANKL were designed to hybridize to a mouse RANKL sequence, using published sequence information (GenBank accession number AF013170.1, incorporated herein as SEQ ID NO:ll). For mouse RANKL the PCR primers were: • forward primer: […] (SEQ ID NO:12) • reverse primer: […] (SEQ ID NO: 13) and • the PCR probe was: FAM-[…]-TAMRA (SEQ ID NO: 14) where FAM is the fluorescent reporter dye and TAMRA is the quencher dye. For mouse GAPDH the PCR primers were: • forward primer: […](SEQ ID NO:15) • reverse primer: […](SEQ ID NO:16) and the • PCR probe was: 5′ JOE-[…]-TAMRA 3′ (SEQ ID NO: 17) where JOE is the fluorescent reporter dye and TAMRA is the quencher dye.
# In accordance with the present invention, a subset of the antisense oligonucleotides in Example 16 was further investigated in dose-response studies. The oligonucleotides used in this investigation were ISIS 180812 (SEQ ID NO: 178), ISIS 180814 (SEQ ID NO: 180), ISIS 180819 (SEQ ID NO: 185), ISIS 180828 (SEQ ID NO: 194) and the control oligonucleotide ISIS 101757 ([…], SEQ ID NO: 355). […] All cytidine residues are 5-methylcytidines.
# C2C12 cells were treated with the oligonucleotides at 10, 50, 75, 100, and 150 nM as described in other examples herein. […] The results are expressed as percent inhibition relative to the untreated control. The data, shown in Table 5, are averages from two experiments and illustrate the oligonucleotides of the present invention are able to downregulate RANKL mRNA expression in a dose-dependent manner.
substance,measurement,setting,value
180819 (antisense eT*eG*e[5mC]*eA*eG*dG*dT*d[5mC]*d[5mC]*d[5mC]*dA*dG*d[5mC]*dG*d[5mC]*eA*eA*eT*eG*eT) [compound 180819],% RANKL mRNA inhibition,RANKL mRNA [1]; 125 nM oligonucleotide 24 h,39%
same,% RANKL mRNA inhibition,RANKL mRNA [1]; 250 nM oligonucleotide 24 h,71%
same,% RANKL mRNA inhibition,RANKL mRNA [1]; 500 nM oligonucleotide 24 h,85%
same,% INHIB (inhibition of mouse RANKL mRNA levels),mouse RANKL mRNA [2],66%
same,% RANKL mRNA inhibition,RANKL mRNA [3],19%
same,% Inhibition of RANKL mRNA,mouse RANKL mRNA [4]; 10 nM oligonucleotide,41%
same,% Inhibition of RANKL mRNA,mouse RANKL mRNA [4]; 50 nM oligonucleotide,39%
same,% Inhibition of RANKL mRNA,mouse RANKL mRNA [4]; 75 nM oligonucleotide,57%
same,% Inhibition of RANKL mRNA,mouse RANKL mRNA [4]; 100 nM oligonucleotide,71%
same,% Inhibition of RANKL mRNA,mouse RANKL mRNA [4]; 150 nM oligonucleotide,75%
